Data taken from ChEMBL document CHEMBL5338751, “Discovery of the First-in-Class Intestinal Restricted FXR and FABP1 Dual Modulator ZLY28 for the Treatment of Nonalcoholic Fatty Liver Disease” (J Med Chem, 2023).
Active and inactive are the calls of the source. No cut-off for these calls is given here.

Experiments:
[1] = biological target: T1, Bile acid receptor (Homo sapiens, UniProt Q96RI1); experiment: Agonist activity at FXR-LBD (unknown origin) using fluorescein-coactivator peptide incubated for 3 hrs by TR-FRET assay
T1 sequence (Q96RI1 whole entry): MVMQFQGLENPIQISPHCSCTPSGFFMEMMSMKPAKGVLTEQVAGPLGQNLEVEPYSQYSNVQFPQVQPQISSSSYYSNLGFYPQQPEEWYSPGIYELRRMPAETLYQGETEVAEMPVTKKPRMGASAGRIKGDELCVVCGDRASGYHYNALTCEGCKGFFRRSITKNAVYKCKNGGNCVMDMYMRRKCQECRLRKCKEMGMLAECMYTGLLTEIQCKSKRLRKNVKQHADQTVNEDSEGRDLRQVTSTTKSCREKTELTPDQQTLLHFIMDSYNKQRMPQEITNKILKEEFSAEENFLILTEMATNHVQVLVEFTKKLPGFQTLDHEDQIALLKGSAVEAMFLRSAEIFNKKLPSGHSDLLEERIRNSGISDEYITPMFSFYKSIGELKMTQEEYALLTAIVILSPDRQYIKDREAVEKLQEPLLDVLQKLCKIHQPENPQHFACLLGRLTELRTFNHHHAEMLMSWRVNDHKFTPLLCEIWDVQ

[2] = biological target: T1, Bile acid receptor; experiment: Agonist activity at FXR (unknown origin) expressed in human HepG2 cells co-transfected with human RXR assessed as luciferase activity incubated for 24 hrs by cell-based luciferase assay
[3] = biological target: T2, Fatty acid-binding protein, liver (Homo sapiens, UniProt P07148); experiment: Displacement of 8-anilino-1-naphthalene-sulfonic acid from FABP1 (unknown origin) incubated for 3 mins by fluorescence based assay
T2 sequence (P07148 whole entry): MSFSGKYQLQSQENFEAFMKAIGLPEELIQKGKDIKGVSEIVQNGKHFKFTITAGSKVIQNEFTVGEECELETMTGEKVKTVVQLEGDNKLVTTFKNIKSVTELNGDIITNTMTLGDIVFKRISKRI

[4] = biological target: T3, Fatty acid-binding protein, liver (Homo sapiens) (UniProt P07148); experiment: Displacement of 8-anilino-1-naphthalene-sulfonic acid from FABP1 (unknown origin) at 10 uM incubated for 3 mins by fluorescence based assay relative to control
T3 sequence (whole entry): T2 sequence (P07148 whole entry)

[5] = system: Mus musculus; experiment: Anti-NASH activity in western diet and CCl4-induced nonalcoholic steatohepatitis C57BL/6 mouse assessed as alleviation of lobular inflammation at 20 mg/kg, po administered for 12 weeks starting from week 8 and change in dose for every 5 days; type: functional, organism-based; settings: time 4.0 weeks
[6] = system: Mus musculus; experiment: Anti-NASH activity in western diet and CCl4-induced nonalcoholic steatohepatitis C57BL/6 mouse assessed as alleviation of hepatic steatosis at 20 mg/kg, po administered for 12 weeks starting from week 8 and change in dose for every 5 days; type: functional, organism-based; settings: time 4.0 weeks
[7] = Metabolic stability in Sprague-Dawley rat liver microsomes assessed as parent compound remaining incubated for 1 hr by LC-MS analysis; type: ADME, Microsome; settings: read-out: Stability
[8] = Metabolic stability in mouse liver microsomes assessed as parent compound remaining incubated for 1 hr by LC-MS analysis; type: ADME, Microsome; settings: read-out: Stability

Row | SMILES | EC50 [1] | IC50 [3] | inhibition [4] | also measured
1 | O=C(O)Cc1cccc(N2CCC(OCc3c(-c4c(Cl)cccc4Cl)noc3C3CC3)CC2)c1 | > 10 µM | – | – | –
2 | O=C(O)C1(c2cccc(-c3cccc(OCc4c(-c5c(Cl)cccc5Cl)noc4C4CC4)c3)c2)CC1 | > 10 µM | – | – | –
3 | O=C(O)COc1cccc(-c2ccc(OCc3c(-c4c(Cl)cccc4Cl)noc3C3CC3)cc2)c1 | 0.26 µM | 3.8 µM | 67.1% | EC50 [2]: 1.85 µM
4 | CC[C@H]1[C@@H](O)[C@@H]2[C@H](CC[C@]3(C)[C@@H]([C@H](C)CCC(=O)O)CC[C@@H]23)[C@@]2(C)CC[C@@H](O)C[C@@H]12 | – | – | – | Activity [5]: Active; Activity [6]: Active
5 | O=C(O)CCc1cccc(-c2ccc(OCc3c(-c4c(Cl)cccc4Cl)noc3C3CC3)cc2)c1 | – | 3.3 µM | – | –
6 | CC(C)(C(=O)O)c1cccc(-c2ccc(OCc3c(-c4c(Cl)cccc4Cl)noc3C3CC3)cc2)c1 | 0.811 µM | 1.5 µM | 85.8% | –
7 | CC(Oc1ccc(-c2ccc(OCc3c(-c4c(Cl)cccc4Cl)noc3C3CC3)cc2)cc1)C(=O)O (stereo not drawn) | 0.32 µM | 3.6 µM | 69.4% | EC50 [2]: 3.51 µM
8 | CC(C)c1onc(-c2c(Cl)cccc2Cl)c1COc1ccc(-c2cccc(C3(C(=O)O)CC3)c2)cc1 | – | – | – | remaining at 1 h [7]: 41.1%; remaining at 1 h [8]: 35.6%
